Data published in patent publication US8808743B2, “Benzonatate compositions and methods of use” (priority 2010, dated 2014).

Experiment: Simulated gastrointestinal dissolution testing (FloVitro apparatus, USP simulated gastric and intestinal fluids)
Assay type: physicochemical
Settings: 100 mg dose
Experimental: The dissolution test used procedures devised by DOW Chemical using their proprietary FloVitro™ dissolution apparatus described in U.S. Pat. No. 6,799,123B2 and in the publication titled “FloVitro™ Technology” published online at:
The system used two different media that were combined during the process. The fluid flow rates were:
Simulated gastric fluid=7.7 ml/min
Simulated intestinal fluid=13.1 ml/mi
Total flow through analyzer=20.8 ml/min
To Cell 1: USP simulated gastric fluid (no pepsin)
To Cell 2: USP simulated intestinal fluid (pH 6.8) (SIF)
The samples tested were: • a) 100 mg dose neat benzonatate • b) 220.48 mg of IRP69H resinate: 87.97 mg benzonatate dose • c) 225.15 mg of IRP64H resinate: 102.21 mg benzonatate dose a) 100 mg Neat Benzonatate

CCCCNc1ccc(C(=O)OCCOCCOCCOCCOCCOCCOCCOCCOCCOC)cc1 [BENZ, benzonatate]
Concentration of Homolog in Effluent Total (0 min): 0.00 mg/L
Concentration of Homolog in Effluent n = 3 (0 min): 0.00 mg/L
Concentration of Homolog in Effluent n = 4 (0 min): 0.00 mg/L
Concentration of Homolog in Effluent n = 5 (0 min): 0.00 mg/L
Concentration of Homolog in Effluent n = 6 (0 min): 0.00 mg/L
Concentration of Homolog in Effluent n = 7 (0 min): 0.00 mg/L
Concentration of Homolog in Effluent n = 8 (0 min): 0.00 mg/L
Concentration of Homolog in Effluent n = 9 (0 min): 0.00 mg/L
Concentration of Homolog in Effluent n = 10 (0 min): 0.00 mg/L
Concentration of Homolog in Effluent n = 11 (0 min): 0.00 mg/L
Concentration of Homolog in Effluent n = 12 (0 min): 0.00 mg/L
Concentration of Homolog in Effluent n = 13 (0 min): 0.00 mg/L
Concentration of Homolog in Effluent n = 14 (0 min): 0.00 mg/L
Concentration of Homolog in Effluent n = 15 (0 min): 0.00 mg/L
Concentration of Homolog in Effluent n = 16 (0 min): 0.00 mg/L
Concentration of Homolog in Effluent n = 17 (0 min): 0.00 mg/L
Concentration of Homolog in Effluent Total (10 min): 13.84 mg/L
Concentration of Homolog in Effluent n = 3 (10 min): 0.04 mg/L
Concentration of Homolog in Effluent n = 4 (10 min): 0.14 mg/L
Concentration of Homolog in Effluent n = 5 (10 min): 0.41 mg/L
Concentration of Homolog in Effluent n = 6 (10 min): 0.85 mg/L
Concentration of Homolog in Effluent n = 7 (10 min): 1.42 mg/L
Concentration of Homolog in Effluent n = 8 (10 min): 1.92 mg/L
Concentration of Homolog in Effluent n = 9 (10 min): 2.14 mg/L
Concentration of Homolog in Effluent n = 10 (10 min): 2.06 mg/L
Concentration of Homolog in Effluent n = 11 (10 min): 1.80 mg/L
Concentration of Homolog in Effluent n = 12 (10 min): 1.26 mg/L
Concentration of Homolog in Effluent n = 13 (10 min): 0.84 mg/L
Concentration of Homolog in Effluent n = 14 (10 min): 0.49 mg/L
Concentration of Homolog in Effluent n = 15 (10 min): 0.27 mg/L
Concentration of Homolog in Effluent n = 16 (10 min): 0.12 mg/L
Concentration of Homolog in Effluent n = 17 (10 min): 0.08 mg/L
Cumul. (cumulative release in effluent) (10 min): 1.44 mg
Concentration of Homolog in Effluent Total (20 min): 28.13 mg/L
Concentration of Homolog in Effluent n = 3 (20 min): 0.07 mg/L
Concentration of Homolog in Effluent n = 4 (20 min): 0.28 mg/L
Concentration of Homolog in Effluent n = 5 (20 min): 0.78 mg/L
Concentration of Homolog in Effluent n = 6 (20 min): 1.73 mg/L
Concentration of Homolog in Effluent n = 7 (20 min): 2.91 mg/L
Concentration of Homolog in Effluent n = 8 (20 min): 3.90 mg/L
Concentration of Homolog in Effluent n = 9 (20 min): 4.38 mg/L
Concentration of Homolog in Effluent n = 10 (20 min): 4.18 mg/L
Concentration of Homolog in Effluent n = 11 (20 min): 3.58 mg/L
Concentration of Homolog in Effluent n = 12 (20 min): 2.65 mg/L
Concentration of Homolog in Effluent n = 13 (20 min): 1.73 mg/L
Concentration of Homolog in Effluent n = 14 (20 min): 1.03 mg/L
Concentration of Homolog in Effluent n = 15 (20 min): 0.55 mg/L
Concentration of Homolog in Effluent n = 16 (20 min): 0.25 mg/L
Concentration of Homolog in Effluent n = 17 (20 min): 0.08 mg/L
Cumul. (cumulative release in effluent) (20 min): 8.00 mg
Concentration of Homolog in Effluent Total (30 min): 34.97 mg/L
Concentration of Homolog in Effluent n = 3 (30 min): 0.08 mg/L
Concentration of Homolog in Effluent n = 4 (30 min): 0.35 mg/L
Concentration of Homolog in Effluent n = 5 (30 min): 0.98 mg/L
Concentration of Homolog in Effluent n = 6 (30 min): 2.10 mg/L
Concentration of Homolog in Effluent n = 7 (30 min): 3.61 mg/L
Concentration of Homolog in Effluent n = 8 (30 min): 4.89 mg/L
Concentration of Homolog in Effluent n = 9 (30 min): 5.47 mg/L
Concentration of Homolog in Effluent n = 10 (30 min): 5.28 mg/L
Concentration of Homolog in Effluent n = 11 (30 min): 4.52 mg/L
Concentration of Homolog in Effluent n = 12 (30 min): 3.29 mg/L
Concentration of Homolog in Effluent n = 13 (30 min): 2.13 mg/L
Concentration of Homolog in Effluent n = 14 (30 min): 1.27 mg/L
Concentration of Homolog in Effluent n = 15 (30 min): 0.63 mg/L
Concentration of Homolog in Effluent n = 16 (30 min): 0.28 mg/L
Concentration of Homolog in Effluent n = 17 (30 min): 0.09 mg/L
Cumul. (cumulative release in effluent) (30 min): 15.52 mg
Concentration of Homolog in Effluent Total (40 min): 37.37 mg/L
Concentration of Homolog in Effluent n = 3 (40 min): 0.09 mg/L
Concentration of Homolog in Effluent n = 4 (40 min): 0.40 mg/L
Concentration of Homolog in Effluent n = 5 (40 min): 1.10 mg/L
Concentration of Homolog in Effluent n = 6 (40 min): 2.27 mg/L
Concentration of Homolog in Effluent n = 7 (40 min): 3.86 mg/L
Concentration of Homolog in Effluent n = 8 (40 min): 5.23 mg/L
Concentration of Homolog in Effluent n = 9 (40 min): 5.81 mg/L
Concentration of Homolog in Effluent n = 10 (40 min): 5.66 mg/L
Concentration of Homolog in Effluent n = 11 (40 min): 4.80 mg/L
Concentration of Homolog in Effluent n = 12 (40 min): 3.47 mg/L
Concentration of Homolog in Effluent n = 13 (40 min): 2.31 mg/L
Concentration of Homolog in Effluent n = 14 (40 min): 1.35 mg/L
Concentration of Homolog in Effluent n = 15 (40 min): 0.67 mg/L
Concentration of Homolog in Effluent n = 16 (40 min): 0.25 mg/L
Concentration of Homolog in Effluent n = 17 (40 min): 0.10 mg/L
Cumul. (cumulative release in effluent) (40 min): 23.20 mg
Concentration of Homolog in Effluent Total (50 min): 36.42 mg/L
Concentration of Homolog in Effluent n = 3 (50 min): 0.11 mg/L
Concentration of Homolog in Effluent n = 4 (50 min): 0.40 mg/L
Concentration of Homolog in Effluent n = 5 (50 min): 1.05 mg/L
Concentration of Homolog in Effluent n = 6 (50 min): 2.18 mg/L
Concentration of Homolog in Effluent n = 7 (50 min): 3.76 mg/L
Concentration of Homolog in Effluent n = 8 (50 min): 5.07 mg/L
Concentration of Homolog in Effluent n = 9 (50 min): 5.67 mg/L
Concentration of Homolog in Effluent n = 10 (50 min): 5.51 mg/L
Concentration of Homolog in Effluent n = 11 (50 min): 4.71 mg/L
Concentration of Homolog in Effluent n = 12 (50 min): 3.42 mg/L
Concentration of Homolog in Effluent n = 13 (50 min): 2.23 mg/L
Concentration of Homolog in Effluent n = 14 (50 min): 1.28 mg/L
Concentration of Homolog in Effluent n = 15 (50 min): 0.67 mg/L
Concentration of Homolog in Effluent n = 16 (50 min): 0.27 mg/L
Concentration of Homolog in Effluent n = 17 (50 min): 0.09 mg/L
Cumul. (cumulative release in effluent) (50 min): 30.53 mg
Concentration of Homolog in Effluent Total (60 min): 34.04 mg/L
Concentration of Homolog in Effluent n = 3 (60 min): 0.07 mg/L
Concentration of Homolog in Effluent n = 4 (60 min): 0.37 mg/L
Concentration of Homolog in Effluent n = 5 (60 min): 0.99 mg/L
Concentration of Homolog in Effluent n = 6 (60 min): 2.07 mg/L
Concentration of Homolog in Effluent n = 7 (60 min): 3.55 mg/L
Concentration of Homolog in Effluent n = 8 (60 min): 4.76 mg/L
Concentration of Homolog in Effluent n = 9 (60 min): 5.36 mg/L
Concentration of Homolog in Effluent n = 10 (60 min): 5.13 mg/L
Concentration of Homolog in Effluent n = 11 (60 min): 4.41 mg/L
Concentration of Homolog in Effluent n = 12 (60 min): 3.17 mg/L
Concentration of Homolog in Effluent n = 13 (60 min): 2.09 mg/L
Concentration of Homolog in Effluent n = 14 (60 min): 1.25 mg/L
Concentration of Homolog in Effluent n = 15 (60 min): 0.56 mg/L
Concentration of Homolog in Effluent n = 16 (60 min): 0.26 mg/L
Concentration of Homolog in Effluent n = 17 (60 min): 0.00 mg/L
Cumul. (cumulative release in effluent) (60 min): 63.41 mg
